# Reference: patent publication US9238797B2, “Method for production of pluripotent stem cell” (TAKARA BIO INC., priority 2008, dated 2016)
# Tests used:
# [1] = test system: human adult skin fibroblast; test: iPS cell colony induction, DHCP and GM (Example 29); assay type: cell-based; conditions: 10 μM, 2 days; 26th day of culture; N=2
# Method: In induction culturing of a pluripotent stem cell, substance treatment with a compound DHCP produced by heating a uronic acid compound derived from an animal and a plant (International Publication No. 98/13328 pamphlet), and GM in which glutathione is added to DHCP (International Publication No. 98/39291 pamphlet) was carried out, and influence on an induction efficiency was studied.
# According to the same manner as that of Example 4-(2), gene transfer was carried out (day 0 of culturing), provided that each 1 mL of the virus solution was added to each well, by diluting 10-fold a solution obtained by three kinds of vectors at an equal amount, with 10F-DMEM.
# (§1) On the sixth day of culture, according to the same manner as that of Example 5-(4), the gene-introduced cell was seeded on a feeder cell, and culturing was continued.
# (§2) In addition, in a control, the substance was not added. After culturing for 2 days, the medium was exchanged with a medium for ES cells, and culturing was continued to the 28th day of culture.
# (§3) In addition, the number in the Table indicates an average value of N=2.
# [2] = test system: human adult skin fibroblast; test: iPS cell colony induction, cell cycle arresting agent treatment (Example 3); assay type: cell-based; conditions: 2 days, 22nd day of culture
# Method: According to the same manner as that of Example 1-(2), gene transfer was carried out (day 0 of culturing), provided that a plate was washed with PBS containing 1.5% human serum albumin, and centrifugation after cell seeding was not carried out. In addition, gene transfer was carried out in a combination of a retrovirus vector DON5-am-OCT4-IR-SOX2, DON5-am-LIN28-IR-NANOG, or DON5-am-KLF4.
# On the seventh day of culture, according to the same manner as that of Example 1-(4), the gene-introduced cell was seeded on a feeder cell, and culturing was continued.
# In addition, the agent was not added to a control. After culturing for 2 days, the medium was exchanged with a medium for ES cells, and culturing was continued until the 22nd day of culture.
# [3] = test system: human adult skin fibroblast; test: iPS cell colony induction, methylation inhibitor treatment (Example 1); conditions: 5-aza-2′-deoxycytidine 1 μM for 2 days in medium for ES cells, 28th day of culture
# Method: Each 700 μL of the virus solution prepared in Preparation Example 2 was added to each well of the Retronectin-immobilized culture plate prepared in (1) in a combination of Table 3, respectively, and this was centrifuged at 32° C. and 2,000×g for 2 hours.
# Thereafter, the supernatant was removed from each well, washed with PBS once, and each 2 mL of human adult skin fibroblast (manufactured by Lonza) suspended in 10F-DMEM to 5×10^4 cells/mL was seeded on each well. After centrifugation at 32° C. and 500×g for 10 minutes, culturing was initiated in a CO2 incubator at 37° C. (0 day of culture).
# Gene transfer for the second time was carried out on the first day of culture. Each 700 μL of virus solutions prepared by Preparation Example 2 were mixed in a combination of Table 3, and polybrene (hexadimethrine.bromide; manufactured by Aldrich) was added to a final concentration of 8 μg/mL to prepare a retrovirus vector mixed solution. The supernatant was removed from a culture plate which had been cultured in (2), and this retrovirus vector mixed solution was added. After culturing in a CO2 incubator at 37° C. for 4 hours, 2 mL of 10F-DMEM was added. After further culturing for 2 days, the supernatant was removed, 2 mL of 10F-DMEM was added, and culturing was continued.
# The gene-introduced cell on the seventh day of culture made in (3) was recovered, and suspended in 10F-DMEM to 5×10^4 cells/mL. 10 mL of this suspension was seeded on the feeder cell, and culturing was continued.
# On the eighth day of culture (after culturing for 1 day from seeding on the feeder cell), the supernatant was removed, and 10 mL of DMEM not containing serum (0F-DMEM: obtained by removing bovine fetal serum from 10F-DMEM) was added under Protein starvation treatment conditions. […]
# The number of a pluripotent stem cell (iPS cell) under each condition of protein starvation of treatment or methylation inhibitor treatment under each of conditions A, B and C was counted on the 28th day of culture.
# [4] = test system: human adult skin fibroblast; test: iPS cell colony induction, cell cycle arresting agent-3, NU6140 (Example 28); assay type: cell-based; conditions: 2 days, 28th day of culture, N=2
# Method: In induction culturing of a pluripotent stem cell, substance treatment with […] (manufactured by ALEXIS BIOCHEMICALS) which is one of Cell cycle arresting agents was carried out, and influence on an induction efficiency was studied.
# According to the same manner as that of Example 1-(1), immobilization of Retronectin on a culture plate was carried out, provided that a non-treatment 12-well culture plate (manufactured by Becton, Dickinson and Company) was used, and each 1 mL of a Retronectin solution was added to each well.
# According to the same manner as that of Example 4-(2), gene transfer was carried out (day 0 of culturing), provided that each 1 mL of the virus solution was added to each well, by diluting 100-fold a solution obtained by three kinds of vectors at an equal amount, with 10F-DMEM.
# as §1, §2, §3
# [5] = test system: human adult skin fibroblast; test: iPS cell colony induction, cell cycle arresting agent-2, Purvalanol A with or without Y27632 (Example 27); assay type: cell-based; conditions: 26th day of culture, N=2
# Method: Regarding Purvalanol A being a Cell cycle arresting agent, for which the effect of promoting induction of a pluripotent stem cell was confirmed in Example 3, extension of the substance treatment term thereof and a combination use thereof with Y-27632 [(R) (+)-trans-4-(1-aminoethyl)-N-(4-pyridyl)cyclohexanecarboxyamide dihydrochloride] which is one of substances suppressing cell death were studied.
# According to the same manner as that of Example 3-(2), gene transfer was carried out (day 0 of culturing), provided that the virus solution was added to each well by each 2 mL, by diluting 10-fold a solution obtained by mixing three kinds of vectors at an equal amount, with 10F-DMEM.
# as §1
# After completion of a substance treatment term, the medium was exchanged with a medium for ES cells, and culturing was continued until the 26th day of culture. […] Regarding the condition under which substance treatment for 4 days to 6 days was carried out, the medium was exchanged at two days interval also during a substance treatment term, and the substance was added at the same concentration every time.
# as §3
smiles,measurement,setting,value
"O=C1C=CC(O)C1O (centres unmarked) [DHCP, 4,5-dihydroxy-2-cyclopentene-1-one]",Number of iPS cell colonies,[1],23.5
"NC(=O)NO [Hydroxyurea, hydroxyurea]",Number of iPS cell colonies,[2]; 10 μM,26
same,Number of iPS cell colonies,[2]; 100 μM,13
"Nc1ncn([C@H]2C[C@H](O)[C@@H](CO)O2)c(=O)n1 [Methylation inhibitor, 5-aza-2′-deoxycytidine]",Number of iPS cell colonies,[3]; retrovirus combination Condition A,11
same,Number of iPS cell colonies,[3]; retrovirus combination Condition B,25
same,Number of iPS cell colonies,[3]; retrovirus combination Condition C,8
CCN(CC)C(=O)c1ccc(Nc2nc(OCC3CCCCC3)c3[nH]cnc3n2)cc1 [NU6140],Number of iPS cell colonies,[4]; 0.1 μM,22.5
same,Number of iPS cell colonies,[4]; 1 μM,28.0
CC(C)[C@H](CO)Nc1nc(Nc2cccc(Cl)c2)c2ncn(C(C)C)c2n1 [Purvalanol A],Number of iPS cell colonies,"[5]; Condition A: 2 μM Purvalanol A, 2 days",26.0
same,Number of iPS cell colonies,"[5]; Condition B: 2 μM Purvalanol A, 4 days",25.5
same,Number of iPS cell colonies,"[5]; Condition C: 2 μM Purvalanol A, 6 days",18.5
same,Number of iPS cell colonies,[2]; 0.1 μM,28
same,Number of iPS cell colonies,[2]; 0.5 μM,19
same,Number of iPS cell colonies,[2]; 2 μM,19
